Patent US9115061B2, “Naphthalene-based inhibitors of anti-apoptotic proteins” (BURNHAM INSTITUTE FOR MEDICAL RESEARCH, priority 2007, dated 2015)

How the values were obtained:
[1] = target: BCL-XL (Homo sapiens (Human), UniProt Q07817); assay: 1D 1H-NMR binding assay; conditions: 4-point-rating scale; compounds 200 μM, BCL-XL 25 μM; note: key: +++: Very Active; ++: Active; +: Mild; −: Weak
Protocol: By observing the aliphatic region of the spectra, binding could be readily detected due to chemical shift changes in active site methyl groups of Ile, Leu, Thr, Val or Ala (region between −0.8 and 0.3 ppm). All experiments were performed with a 600 MHz spectrometer Bruker Avance 600 equipped with four rf channels and z-axis pulse-field gradients.

[2] = target: GST-BCL-XL ΔTM protein (Homo sapiens (Human), UniProt Q07817); assay: Competitive fluorescence polarization assay (FITC-Bak BH3 peptide); type: binding; conditions: read-out: FPA IC50 (BCL-XL)
Protocol: For competitive binding assays, 100 nM GST-BCL-XL ΔTM protein was preincubated with the tested compound at varying concentrations in 47.5 μL PBS (pH=7.4) in 96-well black plates at room temperature for 10 min, then 2.5 μL of 100 nM FITC-labeled Bak BH3 peptide was added to produce a final volume of 50 μL. The wild-type and mutant Bak BH3 peptides were included in each assay plate as positive and negative controls, respectively.
IC50 was determined by fitting the experimental data to a sigmoidal dose-response nonlinear regression model (SigmaPlot 10.0.1, Systat Software, Inc., San Jose, Calif., USA). Data reported are mean of three independent experiments ±standard error (SE). […] Fluorescence polarization was measured after 10 min.

[3] = test system: H1299 cell line; assay: Cell viability, ATP-LITE assay; type: cell-based, human; conditions: 72 hours
Protocol: (§1) The activity of the compounds against human cancer cell lines (PC3ML, H460, H1299, RS11846) were assessed by using the ATP-LITE assay (PerkinElmer). All cells were seeded in either F12 or RPMI1640 medium with 5 mM L-glutamine supplemented with 5% fetal bovine serum (Mediatech Inc.), penicillin and streptomycin (Omega). For maintenance, cells were cultured in 5% FBS. Cells plated into 96 well plates at varying initial densities depending on doubling time. H460 and H1299 plated at 2000 cells/well, A549 and PC3 at 3000 cells/well, and RS118456S at 10,000 cells/well. Compounds were diluted to final concentrations with 0.1% DMSO. Prior to dispensing compounds onto cells, fresh 5% media was placed into wells. Administration of compounds occurred 24 hours after seeding into the fresh media. Cell viability was evaluated using ATP-LITE reagent (PerkinElmer) after 72 hours of treatment. Data were normalized to the DMSO control-treated cells using Prism version 5.01 (Graphpad Software).

[4] = test system: H460 cell line; assay: Cell viability, ATP-LITE assay; type: cell-based, human; conditions: 72 hours, ATP-LITE
Protocol: as §1

[5] = test system: PC3ML cells; assay: Cell viability, ATP-LITE assay; type: cell-based, human; conditions: 72 hours, ATP-LITE
Protocol: as §1

[6] = test system: RS11846 cell line; assay: Cell viability, ATP-LITE assay; type: cell-based, human; conditions: 72 hours
Protocol: as §1

[7] = test system: RS11846 cell line; assay: Apoptosis, Annexin V and propidium iodide assay; type: cell-based, human; conditions: 1-2 days; read-out: RS11846 EC50 (Annexin V- and propidium iodide assay)
Protocol: The apoptotic activity of the compounds against RS11846 cells was assessed by staining with Annexin V- and propidium iodide (PI). Lymphoma cell line, RS11846, was cultured in RPMI 1640 medium (Mediatech Inc., Herndon, Va. 20171) containing 10% fetal bovine serum (Mediatech Inc., Herndon, Va. 20171) and Penicillin/Streptomycin (Mediatech Inc., Herndon, Va. 20171). […] The percentage of viable cells was determined by FITC-Annexin V- and propidium iodide (PI)-labeling, using an Apoptosis Detection kit (BioVision Inc.), and analyzing stained cells by flow cytometry (FACSort; Bectin-Dickinson, Inc.; Mountain View, Calif.). Cells that were annexin-V-negative and PI-negative were considered viable.

[8] = test system: 380 cell line; assay: Apoptosis induction in NHL B-cell lines, Annexin V-FITC/PI; type: cell-based; conditions: 48 hours, relative to DOHH2 and RS11846
Protocol: (§2) After 48 hours of incubation, % viability was determined by FACSort after staining cells by the use of an Annexin V-FITC/PI Apoptosis Detection kit (BioVision Inc.). Viable cells were defined by Annexin V-negative, PI-negative cells.

[9] = test system: DOHH2 cell line; assay: as above; type: cell-based; conditions: 48 hours; read-out: IC50, % viability DOHH2
Protocol: as §2

[10] = test system: RS11846 cell line; assay: as above; type: cell-based; conditions: 48 hours; read-out: IC50, % viability RS11846
Protocol: as §2

[11] = test system: BCL-2 transgenic mice; assay: Oral efficacy study in BCL-2 transgenic mice (splenomegaly); type: in vivo, mouse; conditions: QDX5 for 3 weeks
Protocol: The transgene was propagated on the Balb/c background.
Spleens were removed and weighed.
Spleens were excised from sacrificed mice and cell suspensions treated with a mouse erythrocyte lysing kit (R & D Systems). Total splenocyte count was determined by typan blue dye exclusion assays using hemocytometers. The percentage of B-lymphocytes was determined by fluorescence activated cell sorter (FACS) analysis SACS-CANTO, Bectin-Dickinson Inc., Mountain View, Calif.) following staining cells with Phyco-Erytrin (PE)-conjugated anti-CD19 or -B220 antibodies (Becton Dickinson, San Jose, Calif. 95131).
Representative data are shown by FIGS. 11A and 11B.

[12] = test system: MCF7 cells; assay: XTT dye reduction assay; type: cell-based, human; conditions: three days, read-out: IC50, cell viability MCF7
Protocol: (§3) The effects of the compounds on viability of tumor cells in culture were monitored by using XTT assays with MCF7 and ZR75-1 cell lines. MCF7 cells were grown in DMEM containing 10% fetal bovine serum, penicillin/streptomycin, supplemented with 10^−10 M insulin, 1 mM sodium pyruvate and glutamine. ZR75-1 cells were grown in RPMI containing 10% fetal bovine serum, penicillin/streptomycin, supplemented with HEPES buffer, 1 mM sodium pyruvate and glutamine. Cells were regularly tested for mycoplasma contamination. Cells were seeded triplicates at an initial cell density of 1,000 cells per well. Blank wells received no cells.
(§4) Relative numbers of viable cells was determined by XTT assay. Briefly, in a 96-well plate, we added 50 μl of a mixture of 1 mg/ml of XTT (2,3-bis(2-methoxy-4-nitro-5-sulfophenyl)-5-[(phenylamino)carbonyl]-2H-tetrazolium hydroxide) (Polysciences, Washington, Pa.) containing 0.025 mM PMS (phenazine methosulfate) to each well. The 96-well plates were reincubated for an additional 4 hours to allow for XTT formazan production. Then, the contents of each plate were mixed and optical densities were determined at a wavelength of 450 nm (OD450). Net OD450 was determined after subtracting OD450 of blank wells. Low-passage HeLa cells (between passage number 10 and 20) were transfected with pcDNA3-BCL-XL or control pcDNA3 plasmids using Lipofectamine Plus reagent (Invitrogen) and selected in medium containing 800 μg/ml of G418. Immunoblot analysis of BCL-XL was accomplished as previously described.

[13] = test system: ZR75-1 cells; assay: XTT dye reduction assay; type: cell-based, human; conditions: three days, read-out: IC50, cell viability ZR75-1
Protocol: as §3, §4

BCL-XL, sequence (Q07817 whole entry): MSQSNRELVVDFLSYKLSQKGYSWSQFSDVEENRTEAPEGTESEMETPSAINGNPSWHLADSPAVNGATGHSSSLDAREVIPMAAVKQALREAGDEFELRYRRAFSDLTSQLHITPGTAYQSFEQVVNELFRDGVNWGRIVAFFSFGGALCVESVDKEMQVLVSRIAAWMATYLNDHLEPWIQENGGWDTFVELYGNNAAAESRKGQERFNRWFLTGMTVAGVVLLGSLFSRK
GST-BCL-XL ΔTM protein, sequence (Q07817 1-209): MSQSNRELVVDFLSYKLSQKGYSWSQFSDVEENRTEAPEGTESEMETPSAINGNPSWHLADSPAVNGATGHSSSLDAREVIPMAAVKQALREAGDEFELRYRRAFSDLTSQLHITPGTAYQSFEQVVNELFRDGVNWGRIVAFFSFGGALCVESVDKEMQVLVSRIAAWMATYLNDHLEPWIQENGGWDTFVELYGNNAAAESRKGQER

## Cc1cc2c(C(C)C)c(O)c(O)c(C=O)c2c(O)c1-c1c(C)cc2c(C(C)C)c(O)c(O)c(C=O)c2c1O [Gossypol, gossypol]
[1]
  1D 1H-NMR Binding Assay (BCL-XL): ++
[2]
  IC50: 2720 nM
[3]
  EC50: 6 µM
[4]
  EC50: 3000 nM
[5]
  EC50: 3.1 µM
[6]
  EC50: 2200 nM
[7]
  EC50: 4.23 µM
[8]
  sensitivity of 380 cell line: slightly more resistant
[9]
  IC50: ~3000 nM
[10]
  IC50: ~3000 nM
[11]; 0.06 mmol/kg oral
  tolerability, low dose: well tolerated
[11]; 0.06 mmol/kg oral, wet weight and B-cell count
  shrinkage of spleen, low dose: induced shrinkage of spleen to a considerable extent but not significantly
[11]; […] oral
  tolerability, high dose: not tolerated
[12]
  IC50: 13.2 µM
[13]
  IC50: 8.4 µM
